Assay results reported in patent US4188398A, “Method for treating epilepsy” (priority 1978, dated 1980).

Legend:
[1] = tested on: lysin locus of actinomyces; assay: Mutagenicity, lysin locus of actinomyces; type: cell-based; conditions: same doses
[2] = Neurotoxicity: rightening, gait, stance, muscle tone and equilibrium tests; type: in vivo; conditions: P = 0.05
Description: The neurotoxicity levels were determined by conducting rightening, gait, stance, muscle tone and equilibrium tests.

[3] = Duration of Nembutal-induced sleep; type: in vivo; conditions: P = 0.05; Nembutal 40 mg/kg; proposed preparation 100 mg/kg, zarontin 150 mg/kg, milontin 100 mg/kg
Excerpt: (§1) Nembutal was used as a trunk narcotic, and urethane as a cortical narcotic.

[4] = Other pharmacological properties (vegetative nervous system, blood pressure, breathing, neuromuscular conduction); type: in vivo; conditions: intraperitoneally or per os
[5] = Duration of urethane-induced sleep; type: in vivo
Excerpt: as §1

[6] = Duration of activity, corazol test; type: in vivo, white mice
Description: (§2) Corazol convulsions and maximum electroshock tests were carried out to determine the duration of the preparation's activity. Two series of experiments were made on white mice weighing 20 to 25 g. In the first series, the preparation was introduced intraperitoneally, whereas in the second series it was introduced into the stomach through a metal probe.
(§3) The anticonvulsive action of effective doses of the proposed preparation (200 mg/kg were introduced intraperitoneally, and 400 mg/kg were introduced per os) was tested every 30 minutes on separate groups of mice, each including 100 animals. The tests were continued until complete termination of the anticonvulsive effect.

actinomyces = assay: Mutagenicity, Air-Shibalsky technique, actinomyces; type: cell-based
[7] = Clinical study in epilepsy patients; type: in vivo, human (patients)
Description: The therapeutic effectiveness of the preparation was evaluated while treating different forms of epilepsy.
The patient's age was between 4 and 56 years with the period of sickness ranging from 2 to 18 years. The different forms of the disease fell into the following categories according to clinical and encephalographic data: polymorphous fits with a deep temporal or frontotemporal focus of epileptic activity; psychomotor fits of pseudo absentia epileptica; generalized tonico-clonic convulsive fits; true absentia epileptica with myoclonic atonic fits and cerebrovascular diseases of the central nervous system, resulting in temporal epileptic fits and polymorphous fits.
The duration of the course of treatment varied from 3 months to 3 years.
The preparation of the present invention was administered per os 3 to 6 times a day; each time a patient was given a tablet of 0.25 g so that the daily dose of the preparation was 0.75 to 1.5 g. […] In a group of 40 patients, examination of other electroencephalographic convulsive manifestations was accompanied by studying focal paroxysmal phenomena in the temporal lobes.

[8] = General effect on behaviour of rabbits; type: in vivo; conditions: 500 to 600 mg/kg
[9] = Duration of activity, maximum electroshock test; type: in vivo, white mice
Description: as §2, §3

[10] = Daily administration for eight weeks, rabbits (chronic toxicity); type: in vivo; conditions: 200 mg/kg intraperitoneally once a day
Description: (§4) The effects of daily administrations of the proposed anticonvulsant, carried out over prolonged periods of time, were studied on rabbits and rats.
A 2-percent colloidal solution of the proposed preparation was introduced intraperitoneally in doses of 200 mg/kg to five rabbits. This was done once a day for eight weeks. The same amounts of a colloidal solution of a carboxymethyl cellulose were administered intraperitoneally to three control rabbits.
(§5) Every day the animals' weight and body temperature were measured, and their general state was assessed. Once a week, a general blood analysis was made, the urine was analyzed for protein, blood and biliary pigments. Upon the end of the experiment, the animals were killed (the rabbits were destroyed by air embolism; the rats were decapitated). The liver, heart, kidneys, spleen, lungs and different parts of the small intestine and stomach of the freshly killed animals were taken for pathomorphological investigation.

[11] = Electroencephalographic study of threshold and afteraction discharges, curarized animals; type: in vivo, cats and rabbits; conditions: 150 to 200 mg/kg
Description: The central action of the preparation was studied electroencephalographically. The acute experiments were conducted on curarized cats and rabbits and were aimed at investigating the effects of the preparation upon the threshold magnitude and the duration of afteraction discharges of the dorsal hippocamp, […] nuclei of the thalamus and the motor zone of the cortex.

[12] = Nicotine-induced convulsions; type: in vivo, mice
Description: (§6) The anticonvulsant action of the proposed preparation was tested on mice weighing 19 to 25 g and rats weighing 120 to 150 g by conducting maximum electroshock, corazol, strychnine, camphor, nicotine and arecoline tests.

[13] = Teratogenic and embryotoxic tests (A. M. Chernukh's method); type: in vivo, mongrel white female rats; conditions: 400 mg/kg per os, rats
Description: Teratogenic and embryotoxic tests of the proposed preparation were carried out by using A. M. Chernukh's method on 35 mongrel white female rats weighing 150 to 200 g. The preparation was introduced per os in a dose of 400 mg/kg.
On the twentieth day of pregnancy, all the animals were decapitated.

[14] = Single versus multiple administration, antagonism to corazol (addiction / habit forming); type: in vivo
Arecoline tremor test = assay: Arecoline tremor test; set-up: species or system mice and rats; conditions: in vivo
[15] = Maximum electroshock test
Description: as §6

[16] = Daily administration for eight weeks, rats (chronic toxicity); type: in vivo; conditions: 400 mg/kg per os once a day
Description: as §4
A colloidal solution of the proposed antispasmodic was administered per os in doses of 400 mg/kg to six rats. The drug was introduced through a metal probe once a day for eight weeks.
as §5

[17] = corazol, 200 mg/kg intraperitoneally

Description for Camphor convulsions test: as §6

For CC(C)Oc1ccc(C2CC(=O)NC2=O)cc1 (stereo not drawn) [proposed preparation, α-/para-isopropoxyphenyl/succinimide], which mutagenous effect [1] is on record?
The mutagenous effect was “weak mutagenous effect”.

What about the revertants induced [1] of the same compound?
The revertants induced was “no more than 41 revertants”.

What about the “revertants relative to control” value [1] of the same compound?
The value was “thrice as great as that of the control”.

What about the “TD50 (mean neurotoxic dose)” value ([2]; listed as Preparation according to invention) of the same compound?
Its value is 720(588 to 883) mg/kg.

What about the TD50 ([2]; in vivo, read-out: TD50 (mean neurotoxic dose)) of the same compound?
Its TD50 is 720 mg/kg.

What about the “Average Duration of Nembutal-Induced Sleep” value [3] of the same compound?
The value was 99 ± 67.6 min.

What about the “blood pressure, breathing and neuromuscular conduction” value [4] of the same compound?
Its value is “no changes are observed in the blood pressure, breathing and neuromuscular conduction”.

And the “effect on the vegetative nervous system” value [4]?
Its value is “no effect upon the vegetative nervous system”.

What about the “Average Duration of Urethane-Induced Sleep” value ([5]; P = 0.05, urethane 1,000 mg/kg, proposed preparation 100 mg/kg, zarontin 150 mg/kg, milontin 100 mg/kg) of the same compound?
Its value is 3.2 ± 1.3 min.

What about the “effect upon the duration of urethane-induced sleep” value ([5]; in words) of the same compound?
Its value is “no effect upon the duration of urethane-induced sleep”.

What about the “duration of effect, oral versus intraperitoneal” value ([6]; corazol test) of the same compound?
The value was “lasts longer in the case of oral administration”.

What about the “time after which effect totally disappears” value [6, 17] of the same compound?
Its value is “three”.

And the “time of maximum anticonvulsive effect” value [6, 17]?
The value was 60 min.

And the “time after which activity is gradually brought down” value ([6]; corazol, 400 mg/kg per os)?
The value was “six”.

And the “time after which effect totally disappears” value ([6]; corazol, 400 mg/kg per os)?
Its value is “about eight”.

What about the “time for which maximum level is maintained” value ([6]; corazol, 400 mg/kg per os) of the same compound?
Its value is “four and a half”.

And the “time of maximum anticonvulsive effect” value ([6]; corazol, 400 mg/kg per os)?
Its value is 90 min.

And the mutagenous effect (actinomyces)?
Its mutagenous effect is “no mutagenous effect”.

And the “insomnia and disturbed sleep” value ([7]; administered shortly before bedtime)?
The value was “almost all the patients complained of insomnia and disturbed sleep”.

What about the “itching of the skin, weakness and dizziness” value ([7]; after 3 or 4 days of treatment) of the same compound?
The value was “very few cases”.

And the “time to discontinuation or lower frequency of seizures” value ([7]; after beginning of treatment, dose of 0.25 g)?
Its value is 7 to 8 days.

And the “therapeutic effect in convulsive forms of epilepsy” value ([7]; cases of diffusive electroencephalographic pathology)?
Its value is “week therapeutic effect”.

And the “effect in secondary generalized seizures” value ([7]; clinically and electroencephalographically established focal changes)?
The value was “ineffective”.

What about the “depressing action upon the central nervous system” value ([7]; compared with other antiepileptic drugs) of the same compound?
The value was “not as intense as that of other antiepileptic drugs”.

And the “patients in whom fits discontinued” value ([7]; group of 40 patients, after 10 to 14 days, per os 0.75 to 1.5 g daily)?
The value was 18 patients.

And the “anticonvulsive effect versus milontin and celontin in psychomotor and convulsive fits” value ([7]; human, in vivo)?
The value was “somewhat more effective”.

What about the “effect on minor epileptic fits associated with anterior trunkal localization of the epileptic focus” value ([7]; human, in vivo) of the same compound?
The value was “the most effective in stopping minor epileptic fits”.

And the “increased frequency of fits” value ([7]; human, in vivo)?
The value was “never resulted in an increased frequency of fits”.

And the nausea ([7]; human, in vivo)?
Its nausea is “Some patients complained of nausea”.

What about the “potentiating effect upon convulsive paroxysms” value ([7]; human, in vivo) of the same compound?
The value was “absence of a potentiating effect upon convulsive paroxysms”.

What about the “weakness or dizziness in the day time” value ([7]; human, in vivo) of the same compound?
The value was “does not cause weakness or dizziness in the day time”.

What about the sleep ([7]; last dose 3 or 4 hours before bedtime) of the same compound?
The sleep was “normal sleep was soon restored”.

And the “allergic manifestations or somatic abnormalities” value ([7]; patients)?
The value was “no allergic manifestations or somatic abnormalities were observed”.

What about the “effect on ambivalence of reactions, ability for mental work and night sleep” value ([7]; patients) of the same compound?
Its value is “improves the ambivalence of reactions and the ability for mental work; night sleep becomes deeper and longer”.

What about the “effect on mood, affectivity, anxieties, stresses” value ([7]; patients) of the same compound?
Its value is “improves the general mood of patients, reduces affectivity, eliminates anxieties and relieves stresses”.

What about the “effect upon aggressive, quarrelsome and importune epileptics” value ([7]; patients) of the same compound?
The value was “soothing effect”.

And the “laboratory analyses of blood and urine” value ([7]; patients)?
The value was “no pathological changes”.

And the “pathologic changes in the blood system” value ([7]; patients)?
Its value is “no pathologic changes in the blood system”.

What about the “therapeutic effect in polymorphous paroxysms and fits of the temporal type” value ([7]; per os 0.75 to 1.5 g daily) of the same compound?
The value was “the most effective in cases of polymorphous paroxysms and fits of the temporal type”.

What about the “memory of actual events” value ([7]; psychologic examination) of the same compound?
Its value is “improves the memory of actual events”.

And the “reduction of frequency of fits” value ([7]; remaining 22 of 40 patients, per os 0.75 to 1.5 g daily)?
Its value is “reduced from 3 to 4 a week to 2 to 3 a month”.

What about the sedative effect ([7]; single doses of 0.5 g) of the same compound?
The sedative effect was “weak and short-lived sedative effect”.

And the toxic neurological complications ([7]; uninterrupted courses up to eight months)?
Its toxic neurological complications is “does not result in any toxic neurological complications”.

And the “effect on behaviour of rabbits” value [8]?
The value was “no conspicuous changes in the behaviour”.

And the “time for which effect is maintained at its peak” value ([9]; maximum electroshock)?
The value was “seven”.

What about the “duration of effect, oral versus intraperitoneal” value ([9]; maximum electroshock test) of the same compound?
Its value is “lasts longer in the case of oral administration”.

What about the “antistrychnine effect, ranking of the three drugs” value (in words) of the same compound?
Its value is “the most pronounced”.

What about the “ED50 (strychnine)” value (strychnine) of the same compound?
The value was 110 mg/kg.

What about the “protection index I=TD50/ED50, Strychnine” value (strychnine) of the same compound?
The value was 6.55.

What about the “protection index PI (mean lethal dose / mean effective dose), Strychnine” value (strychnine) of the same compound?
The value was 19.55.

And the “organ changes, macroscopic and microscopic histochemical investigation” value [10]?
Its value is “no changes were observed”.

What about the “weight, body temperature, general state, blood and urine composition” value [10] of the same compound?
The value was “no changes were registered in the weight, body temperature and general state of the animals”.

And the “afteraction discharges of the thalamic nuclei” value [11]?
Its value is “prevented afteraction discharges of the thalamic nuclei”.

And the “convulsion threshold of the hippocamp” value [11]?
Its value is “slightly raised the convulsion threshold of the hippocamp”.

And the “period of discharges in the cortex” value [11]?
The value was “considerably reduces the period of discharges in the cortex”.

What about the “spread of convulsive activity to other brain structures” value [11] of the same compound?
Its value is “prevents the spread of the convulsive activity to other brain structures”.

What about the “stimulation threshold of the motor zone of the cortex” value [11] of the same compound?
The value was “does not raise the stimulation threshold of the motor zone of the cortex”.

And the “effect on intensity of nicotine-induced convulsions” value ([12]; 200 mg/kg, mice)?
The value was “markedly reduced the intensity of convulsions”.

And the “effect on nicotine-induced convulsions and tremor” value ([12]; 300 mg/kg)?
The value was “effectively prevents convulsions and tremor”.

And the ED50 ([12]; Mus musculus)?
Its ED50 is 190 mg/kg.

And the development of pregnancy [13]?
Its development of pregnancy is “the pregnancy developed normally”.

And the “abnormalities in embryos' growth, internal organs and skeletons” value ([13]; twentieth day of pregnancy)?
Its value is “did not reveal any abnormalities in their growth”.

And the habit forming properties [14]?
Its habit forming properties is “devoid of habit forming properties”.

And the “effect on arecoline tremor” value (Arecoline tremor test)?
The value was “does not hinder the development of arecoline tremor”.

What about the ED50 ([15]; Mus musculus, read-out: ED50 (Electroshock)) of the same compound?
The ED50 was 77 mg/kg.

And the “protection index I=TD50/ED50, Electroshock” value ([15]; electroshock)?
Its value is 9.35.

And the “protection index PI (mean lethal dose / mean effective dose), Electroshock” value ([15]; electroshock)?
The value was 28.

And the “anticonvulsant activity in maximum electroshock test” value ([15]; in words)?
The value was “anticonvulsant activity was only exhibited by the proposed preparation and milontin”.

And the “organ changes, macroscopic and microscopic histochemical investigation” value [16]?
Its value is “no changes were observed”.

What about the “weight, body temperature, general state, blood and urine composition” value [16] of the same compound?
The value was “no changes were registered in the weight, body temperature and general state of the animals”.

What about the ED50 (Camphor convulsions test; Mus musculus, read-out: ED50 (camphor)) of the same compound?
The ED50 was 90 mg/kg.

What about the “protection index I=TD50/ED50, Camphor” value (Camphor convulsions test; camphor) of the same compound?
The value was 8.

And the “protection index PI (mean lethal dose / mean effective dose), Camphor” value (Camphor convulsions test; camphor)?
The value was 23.9.
